Assay: molar heat capacity at constant pressure
Conditions: 101.33 kPa, Small (less than 1 g) adiabatic calorimetry

CC(C)(C)c1ccc(Oc2ccc([N+](=O)[O-])cc2)cc1 [1-(tert-butyl)-4-(4-nitrophenoxy)benzene]
Conditions	molar heat capacity at constant pressure [J/K/mol]
210.18 K, Glass	258.75
210.65 K, Crystal	255.67
211.38 K, Glass	260.08
211.85 K, Crystal	257
212.58 K, Glass	261.24
213.05 K, Crystal	258.5
213.78 K, Glass	262.57
214.26 K, Crystal	259.91
214.99 K, Glass	263.98
215.46 K, Crystal	261.07
216.19 K, Glass	265.4
216.66 K, Crystal	262.4
217.4 K, Glass	266.56
217.87 K, Crystal	263.65
218.61 K, Glass	267.89
219.07 K, Crystal	265.56
220 K, Crystal	266.48
220.27 K, Crystal	266.4
221.02 K, Glass	272.13
221.47 K, Crystal	268.06
222.24 K, Glass	272.71
222.68 K, Crystal	269.47
223.45 K, Glass	273.71
223.88 K, Crystal	270.8
224.67 K, Glass	275.46
225.09 K, Crystal	272.13
225.88 K, Glass	277.37
226.29 K, Crystal	273.38
227.1 K, Glass	279.45
227.5 K, Crystal	274.88
228.32 K, Glass	281.53
228.7 K, Crystal	276.37
229.54 K, Glass	283.61
229.91 K, Crystal	277.7
230 K, Crystal	277.79
230.75 K, Glass	286.52
231.12 K, Crystal	278.7
231.96 K, Glass	291.09
232.32 K, Crystal	280.03
233.16 K, Glass	296.83
233.53 K, Crystal	281.78
234.33 K, Metastable liquid	313.12
234.74 K, Crystal	283.36
235.47 K, Metastable liquid	327.51
235.95 K, Crystal	284.69
236.57 K, Metastable liquid	370.08
237.15 K, Crystal	286.77
237.72 K, Metastable liquid	379.14
238.37 K, Crystal	287.51
238.92 K, Metastable liquid	380.05
239.58 K, Crystal	289.09
240 K, Crystal	289.26
240.13 K, Metastable liquid	380.22
240.79 K, Crystal	290.51
241.35 K, Metastable liquid	381.3
242 K, Crystal	291.5
242.56 K, Metastable liquid	382.3
243.21 K, Crystal	292.84
243.77 K, Metastable liquid	383.46
244.43 K, Crystal	294.58
244.99 K, Metastable liquid	384.21
245.64 K, Crystal	295.99
246.85 K, Crystal	297.24
248.06 K, Crystal	298.57
249.28 K, Crystal	300.07
250 K, Crystal	300.9
250.5 K, Crystal	301.73
251.71 K, Crystal	302.73
252.92 K, Crystal	304.39
254.14 K, Crystal	305.89
255.35 K, Crystal	307.72
256.57 K, Crystal	309.05
257.78 K, Crystal	310.55
259 K, Crystal	311.96
260 K, Crystal	312.62
260.22 K, Crystal	313.46
261.44 K, Crystal	315.12

Reference: the NIST ThermoML archive (doi:10.1016/j.jct.2016.10.031)
